Measurements as given in paper PMC11390765 (Cancer Chemotherapy and Pharmacology, 2024).
Marks after values point to notes of the source that are not given here.

Assays:
advanced solid tumors = experiment: Exploratory efficacy (RECIST 1.1, investigator assessment); type: in vivo, human; conditions: capivasertib 400 mg BID 4 days on/3 days off
Procedure: Efficacy was evaluated as an exploratory endpoint by investigator assessment, and per Response Evaluation Criteria in Solid Tumors (RECIST) version 1.1. Tumor assessments were performed by CT and/or MRI scans at screening and then every 8 weeks (± 7 days; earlier if clinically indicated) for 2 years, and then every 12 weeks until disease progression. Radiographic bone scans were performed at screening and repeated as clinically indicated, depending on tumor type.
Safety analyses were performed on the full analysis set, which consisted of all patients who received at least one dose of midazolam and/or capivasertib, irrespective of protocol adherence or continued participation in the study. Efficacy analyses were also performed on the full analysis set. Summary and/or descriptive statistics were used to analyze baseline demographic, safety, and efficacy data; PFS and DoR were estimated using Kaplan–Meier methodology.

[1] = tested on: all three isoforms of AKT; design: method as in PMID 22294718; conditions: cited from earlier work
[2] = Plasma pharmacokinetics of capivasertib and its glucuronide metabolite; type: in vivo, human; conditions: for Ctrough cycle 1, day 13: 12 h post day 12 capivasertib evening dose; for Ctrough cycle 1, day 9: after 3 off-capivasertib-dosing days; for tmax: median (range)
[3] = geometric mean (gCV%), listed as Capivasertib

NC1(C(=O)N[C@@H](CCO)c2ccc(Cl)cc2)CCN(c2nc[nH]c3nccc2-3)CC1 [capivasertib]
Median DoR (95% CI) (advanced solid tumors): 3.8 months | patients with confirmed partial response to treatment (advanced solid tumors): Two | CBR (95% CI) at 24 weeks (advanced solid tumors; full analysis set): 14.3% | ORR (95% CI) (advanced solid tumors; full analysis set): 9.5% | median PFS (95% CI) (advanced solid tumors; full analysis set, 15 PFS events): 3.4 months | inhibition of AKT isoforms [1]: potent, selective inhibitor | AUCτ ([2]; geometric mean (gCV%), 12-h dosing interval, day 12 of cycle 1, capivasertib 400 mg BID): 8499 ng·h/mL | Ctrough cycle 1, day 13 ([2]; geometric mean (gCV%)): 281.5 ng/mL | Ctrough cycle 1, day 13 [2, 3]: 281.5^f (53.3) ng/mL | Ctrough cycle 1, day 9 ([2]; geometric mean (gCV%)): 10.96 ng/mL | Ctrough cycle 1, day 9 [2, 3]: 10.96^e (137.0) ng/mL | Cmax ([2]; geometric mean (gCV%), day 12 of cycle 1, 4th day on capivasertib 400 mg BID, with single oral midazolam 1 mg): 1779 ng/mL | t½λz ([2]; geometric mean (gCV%), day 12 of cycle 1, capivasertib 400 mg BID): 3.76 h | CL/F ([2]; geometric mean (gCV%), day 12 of cycle 1, capivasertib 400 mg BID oral): 46.4 L/h | tmax ([2]; day 12 of cycle 1, capivasertib 400 mg BID): 1.5 h | tmax ([2]; day 12 of cycle 1, capivasertib 400 mg BID, listed as Capivasertib): 1.48^a (0.6–5.5) h
